# From PubChem BioAssay (NCI)
#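 Each compound was tested at five concentrations against cells in 96-well plates for 48 hours. GI50: concentration for 50% inhibition of growth. TGI is the concentration that stops growth completely.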
# Test system: SF-268 CNS
# Experiment: inhibition of tumour cell growth, NCI panel, 48 h
SMILES,GI50 [µM],TGI [µM]
C=C(C)[C@@H]1CC[C@]2(C)[C@H](CC[C@@H]3[C@@H]([C@@](C)(O)CCC=C(C)C)CC[C@]32C)[C@@]1(C)CCC(=O)O,16.1,32.8
Cn1cc(S(=O)(=O)N2CCC3=Cc4c(cnn4-c4ccc(F)cc4)C[C@]3(C(=O)c3cc(C(F)(F)F)ccn3)C2)cn1,> 100,> 100
Cc1ccc2occ/c(=N\Nc3ccccc3)c2c1,–,> 100
CC(=O)NC1CONC1=O (stereo unspecified),–,> 100
Oc1ccc(N=Nc2nccs2)c(O)c1,4.35,38.7
COc1cc(/C=C/C(=O)Oc2ccccc2)ccc1C(=O)O/C=C/c1ccccc1,–,> 100
COc1ccc2c(c1)C(C)Cc1c(ncnc1-n1cnc3ccccc31)N2C (stereo unspecified),0.822,18.1
COc1ccc(-c2noc(N)c2-c2cc(OC)c3c(c2)OCO3)cc1,5.47,98.9
CC(Cl)CN1c2ccccc2Sc2ccc(Cl)cc21 (stereo unspecified),–,> 10
NCCCn1c2c(c3ccccc3c1=O)C(=O)c1ccccc1-2,0.498,8.55
O=C1c2ccccc2C(=O)c2c(NCCN=Cc3ccccc3O)cccc21,2.7,14.9
Oc1ccc(/C=C/c2cc(O)cc3c2C(c2cc(O)cc(O)c2)C(c2ccc(O)c(O)c2)O3)cc1 (stereo unspecified),–,> 100
CC1(C)N=C(N)N=C(N)N1c1cccc(OCCOc2cccc([N+](=O)[O-])c2)c1,0.535,> 100
COc1ccc(/C=C/c2cnccn2)cc1OC,–,> 10
O=[N+]([O-])c1ccc(Sc2c3ccccc3nc3ccccc23)cn1,–,52.4
COc1cc2c3c(n(CCCN(C)CCO)c(=O)c2cc1OC)-c1cc2c(cc1C3=O)OCO2,> 22.1,> 100
C=CCn1c(SCC(=O)Nc2ccc(C(=O)/C=C/c3cc(OC)c(OC)c(OC)c3)cc2)nnc1-c1ccc(OC)cc1,0.399,11.2
CNC(C)[C@H]1CCC2C3CC=C4C(=O)[C@@H](NC(=O)C=C(C)C)CC[C@]4(C)C3CC[C@@]21C (stereo partly specified),1.6,3.66
Clc1nc(Cl)c2ncn(Cc3ccccc3Cn3cnc4c(Cl)nc(Cl)nc43)c2n1,3.05,12.3
C=C1C(O)C2C(=C(C)C13CC3)C(=O)C(C)(C)C2OC (stereo unspecified),> 100,> 100
COc1cc(C(=O)O[C@H](C(N)=O)[C@]2(C)CO2)c2cccc(C)c2c1,–,> 100

# Test system: SF-539 CNS
# Experiment: inhibition of tumour cell growth, NCI panel, 48 h
SMILES,GI50 [µM],TGI [µM]
C=C(C)[C@@H]1CC[C@]2(C)[C@H](CC[C@@H]3[C@@H]([C@@](C)(O)CCC=C(C)C)CC[C@]32C)[C@@]1(C)CCC(=O)O,16,29.9
Cn1cc(S(=O)(=O)N2CCC3=Cc4c(cnn4-c4ccc(F)cc4)C[C@]3(C(=O)c3cc(C(F)(F)F)ccn3)C2)cn1,95.8,> 100
Cc1ccc2occ/c(=N\Nc3ccccc3)c2c1,–,> 100
CC(=O)NC1CONC1=O (stereo unspecified),–,> 100
Oc1ccc(N=Nc2nccs2)c(O)c1,6.66,28.9
COc1cc(/C=C/C(=O)Oc2ccccc2)ccc1C(=O)O/C=C/c1ccccc1,–,> 100
COc1ccc2c(c1)C(C)Cc1c(ncnc1-n1cnc3ccccc31)N2C (stereo unspecified),0.251,0.774
COc1ccc(-c2noc(N)c2-c2cc(OC)c3c(c2)OCO3)cc1,1.76,4.91
CC(Cl)CN1c2ccccc2Sc2ccc(Cl)cc21 (stereo unspecified),–,> 10
NCCCn1c2c(c3ccccc3c1=O)C(=O)c1ccccc1-2,0.104,1.13
O=C1c2ccccc2C(=O)c2c(NCCN=Cc3ccccc3O)cccc21,2.96,13.3
Oc1ccc(/C=C/c2cc(O)cc3c2C(c2cc(O)cc(O)c2)C(c2ccc(O)c(O)c2)O3)cc1 (stereo unspecified),–,> 100
CC1(C)N=C(N)N=C(N)N1c1cccc(OCCOc2cccc([N+](=O)[O-])c2)c1,3.41,> 100
COc1ccc(/C=C/c2cnccn2)cc1OC,–,> 10
O=[N+]([O-])c1ccc(Sc2c3ccccc3nc3ccccc23)cn1,–,> 20.5
COc1cc2c3c(n(CCCN(C)CCO)c(=O)c2cc1OC)-c1cc2c(cc1C3=O)OCO2,2.89,> 33.5
C=CCn1c(SCC(=O)Nc2ccc(C(=O)/C=C/c3cc(OC)c(OC)c(OC)c3)cc2)nnc1-c1ccc(OC)cc1,0.248,0.666
CNC(C)[C@H]1CCC2C3CC=C4C(=O)[C@@H](NC(=O)C=C(C)C)CC[C@]4(C)C3CC[C@@]21C (stereo partly specified),1.3,2.64
Clc1nc(Cl)c2ncn(Cc3ccccc3Cn3cnc4c(Cl)nc(Cl)nc43)c2n1,0.16,0.719
C=C1C(O)C2C(=C(C)C13CC3)C(=O)C(C)(C)C2OC (stereo unspecified),> 100,> 100
COc1cc(C(=O)O[C@H](C(N)=O)[C@]2(C)CO2)c2cccc(C)c2c1,< 0.0121,< 0.0465

# Test system: T-47D breast
# Experiment: inhibition of tumour cell growth, NCI panel, 48 h
SMILES,GI50 [µM],TGI [µM]
C=C(C)[C@@H]1CC[C@]2(C)[C@H](CC[C@@H]3[C@@H]([C@@](C)(O)CCC=C(C)C)CC[C@]32C)[C@@]1(C)CCC(=O)O,21.5,> 100
Cn1cc(S(=O)(=O)N2CCC3=Cc4c(cnn4-c4ccc(F)cc4)C[C@]3(C(=O)c3cc(C(F)(F)F)ccn3)C2)cn1,13.3,> 100
Cc1ccc2occ/c(=N\Nc3ccccc3)c2c1,–,30.5
CC(=O)NC1CONC1=O (stereo unspecified),–,> 100
Oc1ccc(N=Nc2nccs2)c(O)c1,4.87,40.1
COc1cc(/C=C/C(=O)Oc2ccccc2)ccc1C(=O)O/C=C/c1ccccc1,–,> 100
COc1ccc2c(c1)C(C)Cc1c(ncnc1-n1cnc3ccccc31)N2C (stereo unspecified),0.432,64.6
COc1ccc(-c2noc(N)c2-c2cc(OC)c3c(c2)OCO3)cc1,3.61,> 54.8
CC(Cl)CN1c2ccccc2Sc2ccc(Cl)cc21 (stereo unspecified),–,> 10
NCCCn1c2c(c3ccccc3c1=O)C(=O)c1ccccc1-2,0.162,0.951
O=C1c2ccccc2C(=O)c2c(NCCN=Cc3ccccc3O)cccc21,3.46,> 47.1
Oc1ccc(/C=C/c2cc(O)cc3c2C(c2cc(O)cc(O)c2)C(c2ccc(O)c(O)c2)O3)cc1 (stereo unspecified),–,> 100
CC1(C)N=C(N)N=C(N)N1c1cccc(OCCOc2cccc([N+](=O)[O-])c2)c1,12.6,> 100
COc1ccc(/C=C/c2cnccn2)cc1OC,–,> 10
O=[N+]([O-])c1ccc(Sc2c3ccccc3nc3ccccc23)cn1,–,19.9
COc1cc2c3c(n(CCCN(C)CCO)c(=O)c2cc1OC)-c1cc2c(cc1C3=O)OCO2,10.8,> 100
C=CCn1c(SCC(=O)Nc2ccc(C(=O)/C=C/c3cc(OC)c(OC)c(OC)c3)cc2)nnc1-c1ccc(OC)cc1,0.455,5.73
CNC(C)[C@H]1CCC2C3CC=C4C(=O)[C@@H](NC(=O)C=C(C)C)CC[C@]4(C)C3CC[C@@]21C (stereo partly specified),0.925,5.05
Clc1nc(Cl)c2ncn(Cc3ccccc3Cn3cnc4c(Cl)nc(Cl)nc43)c2n1,1.73,4.71
C=C1C(O)C2C(=C(C)C13CC3)C(=O)C(C)(C)C2OC (stereo unspecified),23.1,67.8
COc1cc(C(=O)O[C@H](C(N)=O)[C@]2(C)CO2)c2cccc(C)c2c1,1.11,8.1

# Test system: HS 578T breast
# Experiment: inhibition of tumour cell growth, NCI panel, 48 h
SMILES,GI50 [µM],TGI [µM]
C=C(C)[C@@H]1CC[C@]2(C)[C@H](CC[C@@H]3[C@@H]([C@@](C)(O)CCC=C(C)C)CC[C@]32C)[C@@]1(C)CCC(=O)O,24,86.9
Cn1cc(S(=O)(=O)N2CCC3=Cc4c(cnn4-c4ccc(F)cc4)C[C@]3(C(=O)c3cc(C(F)(F)F)ccn3)C2)cn1,37.8,> 100
Cc1ccc2occ/c(=N\Nc3ccccc3)c2c1,–,> 100
CC(=O)NC1CONC1=O (stereo unspecified),–,> 100
Oc1ccc(N=Nc2nccs2)c(O)c1,13.6,78.1
COc1cc(/C=C/C(=O)Oc2ccccc2)ccc1C(=O)O/C=C/c1ccccc1,–,> 100
COc1ccc2c(c1)C(C)Cc1c(ncnc1-n1cnc3ccccc31)N2C (stereo unspecified),0.535,37.2
COc1ccc(-c2noc(N)c2-c2cc(OC)c3c(c2)OCO3)cc1,2.61,24.4
CC(Cl)CN1c2ccccc2Sc2ccc(Cl)cc21 (stereo unspecified),–,> 10
NCCCn1c2c(c3ccccc3c1=O)C(=O)c1ccccc1-2,0.556,6.25
O=C1c2ccccc2C(=O)c2c(NCCN=Cc3ccccc3O)cccc21,1.72,4.88
Oc1ccc(/C=C/c2cc(O)cc3c2C(c2cc(O)cc(O)c2)C(c2ccc(O)c(O)c2)O3)cc1 (stereo unspecified),–,88.8
CC1(C)N=C(N)N=C(N)N1c1cccc(OCCOc2cccc([N+](=O)[O-])c2)c1,33.5,> 100
COc1ccc(/C=C/c2cnccn2)cc1OC,–,> 10
O=[N+]([O-])c1ccc(Sc2c3ccccc3nc3ccccc23)cn1,–,29.7
COc1cc2c3c(n(CCCN(C)CCO)c(=O)c2cc1OC)-c1cc2c(cc1C3=O)OCO2,> 61.3,> 100
C=CCn1c(SCC(=O)Nc2ccc(C(=O)/C=C/c3cc(OC)c(OC)c(OC)c3)cc2)nnc1-c1ccc(OC)cc1,2.12,56.7
CNC(C)[C@H]1CCC2C3CC=C4C(=O)[C@@H](NC(=O)C=C(C)C)CC[C@]4(C)C3CC[C@@]21C (stereo partly specified),1.87,6.82
Clc1nc(Cl)c2ncn(Cc3ccccc3Cn3cnc4c(Cl)nc(Cl)nc43)c2n1,2.87,9.39
C=C1C(O)C2C(=C(C)C13CC3)C(=O)C(C)(C)C2OC (stereo unspecified),59.6,> 100
COc1cc(C(=O)O[C@H](C(N)=O)[C@]2(C)CO2)c2cccc(C)c2c1,0.13,15.5

# Test system: UACC-62 melanoma
# Experiment: inhibition of tumour cell growth, NCI panel, 48 h
SMILES,GI50 [µM],TGI [µM]
C=C(C)[C@@H]1CC[C@]2(C)[C@H](CC[C@@H]3[C@@H]([C@@](C)(O)CCC=C(C)C)CC[C@]32C)[C@@]1(C)CCC(=O)O,13.9,29.5
Cn1cc(S(=O)(=O)N2CCC3=Cc4c(cnn4-c4ccc(F)cc4)C[C@]3(C(=O)c3cc(C(F)(F)F)ccn3)C2)cn1,29.1,> 100
Cc1ccc2occ/c(=N\Nc3ccccc3)c2c1,–,> 100
CC(=O)NC1CONC1=O (stereo unspecified),–,> 100
Oc1ccc(N=Nc2nccs2)c(O)c1,4.6,17.6
COc1cc(/C=C/C(=O)Oc2ccccc2)ccc1C(=O)O/C=C/c1ccccc1,–,> 100
COc1ccc2c(c1)C(C)Cc1c(ncnc1-n1cnc3ccccc31)N2C (stereo unspecified),0.735,21.2
COc1ccc(-c2noc(N)c2-c2cc(OC)c3c(c2)OCO3)cc1,4.22,> 100
CC(Cl)CN1c2ccccc2Sc2ccc(Cl)cc21 (stereo unspecified),–,> 10
NCCCn1c2c(c3ccccc3c1=O)C(=O)c1ccccc1-2,0.247,2.69
O=C1c2ccccc2C(=O)c2c(NCCN=Cc3ccccc3O)cccc21,5.59,–
Oc1ccc(/C=C/c2cc(O)cc3c2C(c2cc(O)cc(O)c2)C(c2ccc(O)c(O)c2)O3)cc1 (stereo unspecified),–,42.4
CC1(C)N=C(N)N=C(N)N1c1cccc(OCCOc2cccc([N+](=O)[O-])c2)c1,2.28,> 100
COc1ccc(/C=C/c2cnccn2)cc1OC,–,> 10
O=[N+]([O-])c1ccc(Sc2c3ccccc3nc3ccccc23)cn1,–,35
COc1cc2c3c(n(CCCN(C)CCO)c(=O)c2cc1OC)-c1cc2c(cc1C3=O)OCO2,1.54,24.7
C=CCn1c(SCC(=O)Nc2ccc(C(=O)/C=C/c3cc(OC)c(OC)c(OC)c3)cc2)nnc1-c1ccc(OC)cc1,0.865,3.78
CNC(C)[C@H]1CCC2C3CC=C4C(=O)[C@@H](NC(=O)C=C(C)C)CC[C@]4(C)C3CC[C@@]21C (stereo partly specified),1.84,3.54
Clc1nc(Cl)c2ncn(Cc3ccccc3Cn3cnc4c(Cl)nc(Cl)nc43)c2n1,1.66,3.25
C=C1C(O)C2C(=C(C)C13CC3)C(=O)C(C)(C)C2OC (stereo unspecified),90.4,> 100
